Literature values as cited in publication PMC12299598 (Pharmaceuticals, 2025).
Where two headings read alike, the source gives them in different places.

Assays:
BTK = conditions: lower than ibrutinib
[1] = design: method as in PMID 38955074
[2] = tested on: patients treated with ibrutinib; design: method as in PMID 29419429
[3] = tested on: patients exposed to ibrutinib
CYP3A4 = tested on: CYP3A4; design: method as in PMID 1764870

For `Nc1ncnc2c1c(-c1ccc(Oc3ccccc3)cc1)nn2C1CCCN(C(=O)C(O)CO)C1` (stereo not shown) [dihydrodiol metabolite], the “BTK inhibitory activity relative to ibrutinib” value (BTK) is given as 15 fold.
For `C=CC(=O)N1CCC[C@@H](n2nc(-c3ccc(Oc4ccccc4)cc3)c3c(N)ncnc32)C1` [ibrutinib], the Permeability [1] is listed as “high”, the Solubility [1] is listed as “low” and the “Toxicity leading to discontinuation: arthralgia” value ([2]; front-line ibrutinib) is listed as 41.6%. For the same compound, the “Toxicity leading to discontinuation: atrial fibrillation” value ([2]; front-line ibrutinib) was 25%, the “Toxicity leading to discontinuation: rash” value ([2]; front-line ibrutinib) was 16.7% and the “Toxicity leading to discontinuation: atrial fibrillation” value ([2]; relapsed/refractory population) was 12.3%. For the same compound, the “Toxicity leading to discontinuation: bleeding” value ([2]; relapsed/refractory population) was 9%, the “Toxicity leading to discontinuation: diarrhea” value ([2]; relapsed/refractory population) was 6.6% and the “Toxicity leading to discontinuation: infection” value ([2]; relapsed/refractory population) was 10.7%. For the same compound, the “Toxicity leading to discontinuation: pneumonitis” value ([2]; relapsed/refractory population) was 9.9%, the “Cardiovascular deaths linked to ibrutinib” value [3] was 303 and the “Mortality rate of cardiovascular ADRs” value ([3]; CNS events and heart failure) was 20%. For the same compound, the “Mortality rate of cardiovascular ADRs” value ([3]; supraventricular and ventricular arrhythmias) was 8%, the Mortality rate ([3]; supraventricular arrhythmias with concurrent CNS events) was 28.8% and the Absolute oral bioavailability (fasting conditions) was 3.9%. The “Time to peak concentration” value (oral administration) was 1 to 2 h and the Absolute oral bioavailability (with standard breakfast) was 8.4%.
For `COc1ccc2[nH]c([S+]([O-])Cc3ncc(C)c(OC)c3C)nc2c1` (stereo not shown) [omeprazole], the CYP3A4 inhibitor strength (CYP3A4) is listed as “weak”.
